US9061015B2, “Stable solid dispersion of a derivative of vinca alkaloid and process for manufacturing it” (PIERRE FABRE MEDICAMENT, priority 2004, dated 2015)

Columns and labels:
[1] = Required storage temperature (stability); format: physicochemical; conditions: regardless of form (amorphous or crystalline) and degree of division
[2] = Physicochemical stability on storage at 25° C./60% RH: variation of the content of impurities compared with t0; conditions: after 6 months 25° C./60% RH compared with t0
Procedure: Variation of the content of impurities (in % relative) after 6 months 25° C./60% RH compared with t0.
Other hydrophilic polymers such as polyethyleneglycols were tested.

- temperature at which it must be kept [1]: below −15 °C
- 4-0-deacetylvinorelbine impurity, variation of the content [2]: +0.05 % relative
- 6′-N-methylvinorelbine impurity, variation of the content [2]: +0.05 % relative
- 6′-N-oxyvinorelbine impurity, variation of the content [2]: +0.37 % relative
- S/D6 impurity, variation of the content [2]: +1.02 % relative
- Total impurities, variation of the content [2]: +1.87 % relative
Compound: CCC1=C[C@@H]2CN(C1)Cc1c([nH]c3ccccc13)[C@@](C(=O)OC)(c1cc3c(cc1OC)N(C)[C@H]1[C@@](O)(C(=O)OC)[C@H](OC(C)=O)[C@]4(CC)C=CCN5CC[C@]31[C@@H]54)C2 [Vinorelbine ditartrate, vinorelbine ditartrate]
